# In US8188218B2, “Bi-functional peptides for multiple sclerosis treatment and diagnosis” (priority 2006, dated 2012):
# Read-outs that look alike come from different tables or passages of the source. Numbered stars: 1 amine (or outer) side, 2 acyl side, 3 side chain; on linkers, the order of the positions; unused ones are H or OH. Square brackets hold non-standard residues; d marks the D form. Ends that are not written are not given here. Peptide text beside a SMILES is read from it. Eb = biotinyl-PEG-Glu: N-γ-(N-biotinyl-3-(2-(2-(3-aminopropyloxy)-ethoxy)-ethoxy)-propyl)-L-glutamine, O=C(CCCC[C@@H]1SC[C@@H]2NC(=O)N[C@@H]21)NCCCOCCOCCOCCCNC(=O)CC[C@H](N[*:1])C(=O)[*:2]; Ahx = NCCCCCC(=O)O
# How the values were obtained:
# [1] = test system: PLP/CFA-immunized female SJL/J mice; test: Anaphylaxis incidence after injection of the peptide at later phase of disease; assay type: in vivo, mouse
# Description: The less incidence of inducing anaphylactic shock by BPI molecules was further examined. Female SJL/J mice were immunized with PLP/CFA as above, and injected intravenously with PLP or BPI molecules (100 nmol/mouse) at later phase of the disease (i.e., between day 28 and day 35). […] This was confirmed in another set of experiment, PLP-BPI induced anaphylaxis to 38.5% of treated mice while PLP caused anaphylaxis to more than 80% of treated mice (Table 9, Experiment II). In addition, 100% of mice that were injected with unlinked mixture of PLP and LABL (100 nmol each) died due to anaphylaxis. […] Taken together, BPI molecules (including PLP-BPI and Ac-PLP-BPI-NH2) could suppress EAE more efficiently with lower incidence of inducing anaphylaxis than PLP.
# PLP/CFA-immunized mice = test: Anaphylaxis incidence after re-injection of the peptide at day 30
# Description: In this example, the ability of BPI molecules to induce anaphylaxis after multiple injections was investigated.
# [2] = test system: EAE mouse model (SJL/J female mice immunized with PLP/CFA); assay type: in vivo; conditions: for number of animals that died, Day 10 / number of animals that died, Day 11 / number of animals that died, Day 14 / number of animals that died, Total: 10 mice/group; for toxicity (conclusion from mortality, in words): mouse, in vivo
# Description: To evaluate the in vivo activity of these molecules, SJL/J female mice at 6-8 weeks of age (Jackson Laboratory, Bar Harbor, Me.) were divided into six groups with ten mice in each group. At the initiation state (Day 0), all mice (10/group) were immunized by subcutaneous (s.c.) inoculation with 200 μg of PLP in a 0.2 mL emulsion with equal volumes of phosphate buffered saline (“PBS”) and complete Freund's adjuvant (“CFA”) (Difco, Detroit, Mich.). To enhance immunization with antigen, killed Mycobacterium tuberculosis strain H37RA (Difco) was added to the emulsion at a concentration of 4 mg/mL and administered to regions above the shoulder and the flanks. The injection volume was 50 μL at each injection site. In addition, 200 ng of pertussis toxin (List Biological Laboratories, Campbell, Calif.) was injected intraperitoneally (i.p.) on the day of immunization and 48 hours post-immunization. The onset of disease was on day 8 to day 12 post-immunization. Then, each mouse in Groups 1-4 received intravenous (i.v.) injections of 100 nmole/100 μL of the test peptides (PLP-BPI, PLP139-151, OVA-BPI, LABL) on days 4, 7, 10 and 14. Group 5 animals were injected with PBS on days 4, 7, 10 and 14. Group 6 animals received one i.p. injection of 500 μg PLPL,R on day 7.
# All of the immunized mice were scored blindly 5-6 days/week by the same observer. Mean daily clinical scores were calculated by adding the grades of each mouse individually divided by the number of mice in each group. All animals were observed daily and, upon signs of paralysis and weakness, gel food and Napa nectar were provided to the animals to prevent dehydration. Saline was injected (s.c.) if a weight loss of 10% was observed within a 24-hour period. Body weight and disease scoring started at the onset of the disease (day 8). The measurements were continued daily (5 to 6 days/week) until the end of the disease.
# The statistical analyses of the EAE scores and EAE incidence were done using Mann-Whitney U test and Kaplan-Meier analysis, respectively. The comparison was done between the peptide-treated mice (Groups 1, 2, 3, 4, and 6) and the control group (Group 5) at day 14 post-immunization.
# LS102.9 mouse B-cells = test: Binding of biotin-labeled PLP-BPI to B-cell line, flow cytometry; assay type: cell-based; conditions: 50 μM, 16 hours at 37° C.; FIG. 11(A)
# Description: (each step was followed by washing×3). […] The results are illustrated in FIG. 11.
# [3] = test system: T-cell-depleted splenocytes isolated from SJL/J female mice (EAE-induced); conditions: 50 μM, 16 hours at 37° C.; FIG. 11(B)
# Description: Binding studies were done using mouse B-lymphocyte line LS102.9 (FIG. 11(A)) and the isolated B-cells from the spleen of female SJL/J mice after induction of EAE (FIG. 11(B)). […] For the isolated spleen cells from EAE mice, the cells were isolated from female SJL/J mice on day 45 post immunization with PLP/CFA, when the clinical disease score for the mice was 0. Lymphocytes were obtained from the spleen cell suspension by centrifugation over Lymphocyte Separation Medium. T-cells were depleted by incubation with anti-CD90 mAb (clone G7) followed by Low-tox rabbit complement. Then, the cells were centrifuged over Lymphocyte Separation Medium to remove dead cells.
# For the binding study, the biotin-labeled peptide (50 μM) was incubated with LS102.9 cells or T-cell-depleted splenocytes (2×10^6 cells) in 0.5% BSA-containing PBS for 16 hours at 37° C., 5% CO2. Following washing×3 with 5% FBS-containing PBS, the cells were incubated with fluorescein Avidin D (15 μg/ml) for 30 min at 4° C. The cells were further stained with biotinylated anti-Avidin D (1 μg/ml) for 60 min at 4° C., and then fluorescein Avidin D (15 μg/ml) for 30 min at 4° C. (each step was followed by washing×3). Finally, the fluorescein intensity of the individual cells was analyzed by flow cytometry.
# EAE mouse model = test: EAE mouse model, PLP-BPI vs mixture of PLP and LABL and VP2-BPI (Example 4); assay type: in vivo
# Description: To evaluate whether linking PLP and LABL peptides to give PLP-BPI has a significant role on its immunomodulatory activity, the activity of PLP-BPI was compared with that of a mixture of unlinked PLP and LABL peptides at the same concentration. To answer whether any antigenic peptide such as VP2 peptide that is linked to LABL peptide to give VP2-BPI will have immunomodulatory activity similar to that of PLP-BPI, we evaluated the activity of VP2-BPI in the same experiment. VP274-86 is an epitope peptide of Theiler's encephalomyelitis virus capsid protein VP2, and is known to bind to I-A^s. PBS-treated mice were used as the negative control. The experimental protocol was the same as in the previous study (see FIG. 1). Thus, VP2-BPI was used as a control to example to see if the PLP portion of the PLP-BPI is important to therapeutic activity.
# [4] = Experiment III, 100 nmol/mouse i.v.
# [5] = peptide treatment day 4 (one), re-injection day 30
# [6] = peptide treatment day 4, 7, 10, 14 (four), re-injection day 30
# [7] = Experiment I, 100 nmol/mouse i.v. between day 28 and day 35
# [8] = Experiment II, 100 nmol/mouse i.v. (mixture 100 nmol each)
molecule,measurement,setting,value
"CC[C@H](C)[C@H](NC(=O)CCCCCNC(=O)CNC(=O)CCCCCNC(=O)CNC(=O)CCCCCNC(=O)[C@H](Cc1ccccc1)NC(=O)[C@H](CCCCN)NC(=O)[C@H](CC(=O)O)NC(=O)[C@@H]1CCCN1C(=O)[C@H](Cc1c[nH]cn1)NC(=O)CNC(=O)[C@H](CC(C)C)NC(=O)[C@H](Cc1c[nH]c2ccccc12)NC(=O)[C@H](CCCCN)NC(=O)CNC(=O)[C@H](CC(C)C)NC(=O)[C@H](CO)NC(=O)[C@H](Cc1c[nH]cn1)NC(C)=O)C(=O)N[C@H](C(=O)N[C@@H](CC(=O)O)C(=O)NCC(=O)N[C@@H](CCC(=O)O)C(=O)N[C@@H](C)C(=O)N[C@H](C(=O)N[C@@H](CC(=O)O)C(=O)N[C@@H](CO)C(=O)NCC(N)=O)[C@@H](C)O)[C@@H](C)O [Ac-PLP-BPI-NH2, Ac-HSLGKWLGHPDKF)-AcGAcGAc-ITDGEATDSG-NH2]",Incidence of anaphylaxis,[1]; [4],43.8%
same,Incidence of anaphylaxis (animals/total),[1]; [4],7/16
same,Moribund or death,PLP/CFA-immunized mice; [5],2/6
same,Moribund or death,PLP/CFA-immunized mice; [6],1/6
"CC[C@H](C)[C@H](N)C(=O)N[C@H](C(=O)N[C@@H](CC(=O)O)C(=O)NCC(=O)N[C@@H](CCC(=O)O)C(=O)N[C@@H](C)C(=O)N[C@H](C(=O)N[C@@H](CC(=O)O)C(=O)N[C@@H](CO)C(=O)NCC(=O)O)[C@@H](C)O)[C@@H](C)O [LABL, ITDGEATDSG]","number of animals that died, Day 10",[2],3
same,"number of animals that died, Day 11",[2],1
same,"number of animals that died, Day 14",[2],0
"CC[C@H](C)[C@H](NC(=O)CCCCCNC(=O)CNC(=O)CCCCCNC(=O)CNC(=O)CCCCCNC(=O)[C@H](C)NC(=O)[C@H](CCC(=O)O)NC(=O)[C@H](CC(N)=O)NC(=O)[C@@H](NC(=O)[C@H](CCC(=O)O)NC(=O)[C@H](C)NC(=O)[C@H](Cc1c[nH]cn1)NC(=O)[C@H](C)NC(=O)[C@H](C)NC(=O)[C@H](Cc1c[nH]cn1)NC(=O)[C@@H](NC(=O)[C@H](C)N)C(C)C)[C@@H](C)CC)C(=O)N[C@H](C(=O)N[C@@H](CC(=O)O)C(=O)NCC(=O)N[C@@H](CCC(=O)O)C(=O)N[C@@H](C)C(=O)N[C@H](C(=O)N[C@@H](CC(=O)O)C(=O)N[C@@H](CO)C(=O)NCC(=O)O)[C@@H](C)O)[C@@H](C)O [OVA-BPI, AVHAAHAEINEA-AcGAcGAc-ITDGEATDSG]","number of animals that died, Day 10",[2],0
same,"number of animals that died, Day 11",[2],0
same,"number of animals that died, Day 14",[2],2
same,"number of animals that died, Total",[2],2
"CC(C)C[C@H](NC(=O)[C@H](Cc1c[nH]c2ccccc12)NC(=O)[C@H](CCCCN)NC(=O)CNC(=O)[C@H](CC(C)C)NC(=O)[C@H](CO)NC(=O)[C@@H](N)Cc1c[nH]cn1)C(=O)NCC(=O)N[C@@H](Cc1c[nH]cn1)C(=O)N1CCC[C@H]1C(=O)N[C@@H](CC(=O)O)C(=O)N[C@@H](CCCCN)C(=O)N[C@@H](Cc1ccccc1)C(=O)O [PLP, HSLGKWLGHPDKF]","number of animals that died, Day 10",[2],0
same,"number of animals that died, Day 11",[2],0
same,"number of animals that died, Day 14",[2],0
same,"number of animals that died, Total",[2],no animals died
same,"number of animals that died, Total",[2]; listed as PLP139-151,0
same,Incidence of anaphylaxis,[1]; [7],75.0%
same,Incidence of anaphylaxis (animals/total),[1]; [7],9/12
same,Incidence of anaphylaxis (animals/total),[1]; [8],11/13
same,Incidence of anaphylaxis,[1]; [4],76.5%
same,Incidence of anaphylaxis (animals/total),[1]; [4],13/17
same,Moribund or death,"PLP/CFA-immunized mice; peptide treatment None (PBS) day 4, 7, 10, 14, peptide injection day 30",3/4
"CC[C@H](C)[C@H](NC(=O)CCCCCNC(=O)CNC(=O)CCCCCNC(=O)CNC(=O)CCCCCNC(=O)[C@H](Cc1ccccc1)NC(=O)[C@H](CCCCN)NC(=O)[C@H](CC(=O)O)NC(=O)[C@@H]1CCCN1C(=O)[C@H](Cc1c[nH]cn1)NC(=O)CNC(=O)[C@H](CC(C)C)NC(=O)[C@H](Cc1c[nH]c2ccccc12)NC(=O)[C@H](CCCCN)NC(=O)CNC(=O)[C@H](CC(C)C)NC(=O)[C@H](CO)NC(=O)[C@@H](N)Cc1c[nH]cn1)C(=O)N[C@H](C(=O)N[C@@H](CC(=O)O)C(=O)NCC(=O)N[C@@H](CCC(=O)O)C(=O)N[C@@H](C)C(=O)N[C@H](C(=O)N[C@@H](CC(=O)O)C(=O)N[C@@H](CO)C(=O)NCC(=O)O)[C@@H](C)O)[C@@H](C)O [PLP-BPI, HSLGKWLGHPDKF-AcGAcGAc-ITDGEATDSG]","number of animals that died, Day 10",[2],0
same,"number of animals that died, Day 11",[2],0
same,"number of animals that died, Day 14",[2],0
same,"toxicity (conclusion from mortality, in words)",[2],low toxicity
same,Incidence of anaphylaxis,[1]; [7],35.7%
same,Incidence of anaphylaxis (animals/total),[1]; [7],5/14
same,Incidence of anaphylaxis,[1]; [8],38.5%
same,Incidence of anaphylaxis (animals/total),[1]; [8],5/13
same,Moribund or death,PLP/CFA-immunized mice; [5],3/6
same,Moribund or death,PLP/CFA-immunized mice; [6],1/6
"CC(C)C[C@H](NC(=O)[C@H](CC(C)C)NC(=O)[C@H](CCCCN)NC(=O)CNC(=O)[C@H](CC(C)C)NC(=O)[C@H](CO)NC(=O)[C@@H](N)Cc1c[nH]cn1)C(=O)NCC(=O)N[C@@H](CCCNC(=N)N)C(=O)N1CCC[C@H]1C(=O)N[C@@H](CC(=O)O)C(=O)N[C@@H](CCCCN)C(=O)N[C@@H](Cc1ccccc1)C(=O)O [PLPL,R, HSLGKLLGRPDKF] (H-HSLGKLLGRPDKF-OH)","number of animals that died, Day 10",[2],0
same,"number of animals that died, Day 11",[2],5
same,"number of animals that died, Day 14",[2],1
same,"toxicity (conclusion from mortality, in words)",[2],severe effect (toxicity)
EbHSLGKWLGHPDKF-AcGAcGAc-ITDGEATDSG ([Eb]HSLGKWLGHPDKF[Ahx]G[Ahx]G[Ahx]ITDGEATDSG) [B-PLP-BPI],binding to LS102.9 B-cell line (in words),LS102.9 mouse B-cells,binds to LS102.9 B-cell line
same,binding to B-cells from the spleen of EAE-induced mice (in words),[3],can also bind to the B-cells from the spleen of EAE-induced mice
QEAFSHIRIPLPH-AcGAcGAc-ITDGEATDSG (QEAFSHIRIPLPH[Ahx]G[Ahx]G[Ahx]ITDGEATDSG; listed as Homo sapiens) [VP2-BPI],disease incidence,"EAE mouse model; after day 17, FIG. 8(B)",100%
same,loss of body weight (in words),"EAE mouse model; around day 14, FIG. 8(C)",greatest in PBS-treated mice followed by VP2-BPI-treated mice
